Assay results as given in publication PMC8406319, “The dCache Chemoreceptor TlpA of Helicobacter pylori Binds Multiple Attractant and Antagonistic Ligands via Distinct Sites” (mBio, 2021).
Where a name gives a salt, the structure may show the parent alone.

Tests used:
[1] = tested on: TlpALBD point mutants; assay: SPR binding affinity of TlpALBD point mutants relative to WT; parameters: species or system Helicobacter pylori SS1; conditions: Y228A, Y252A, D254A vs WT
Source text: The periplasmic portion of TlpA (TlpALBD), amino acids 28 to 299, from Helicobacter pylori SS1 was cloned into a pBH4 expression vector (pBH4_TlpALBD) to generate an N-terminal 6×His-tagged construct, with a tobacco etch virus (TEV) protease site, under the control of isopropyl-β-D-thiogalactopyranoside (IPTG) ([19]). […] TlpALBD and all point mutants were purified as described previously by Sweeney et al. ([19]).
Purified TlpALBD was immobilized on a CM5 series S sensor chip, and binding affinities were tested using a Biacore S200 instrument (GE Healthcare) as described previously ([39], [57], [59]). Briefly, proteins were captured using an amine-coupling kit (GE Healthcare), in which the carboxylmethyl dextran matrix of the sensor chip was activated by the injection of a mixture of 0.2 M 1-ethyl-3-[(3-dimethylamino)propyl]-carbodiimide (EDC) and 0.05 M N-hydroxysuccinimide (NHS), followed by the neutralization of the remaining unreacted NHS ester groups by the injection of 1 M ethanolamine-HCl (pH 8.0). Purified TlpALBD was diluted in 10 mM sodium acetate buffer (pH 4.5) at a concentration of 100 μg/ml for immobilization to the chip. A total of 8,400 response units (RU) of TlpALBD were captured on flow cell 2. […] The data sets were analyzed using Biacore S200 evaluation software 2.0.2; sensorgrams were double-reference subtracted.

[2] = tested on: H. pylori PMSS1 ΔtlpA; assay: Temporal chemotaxis assay (direction changes), ΔtlpA mutant; type: cell-based, Helicobacter pylori; conditions: ligands 0.1-10 mM, controls 50 μM dipyridyl, 10 mM HCl
Experimental: Cultures of H. pylori PMSS1 WT and ΔtlpA strains were grown overnight, back-diluted, and then incubated until an OD600 of 0.12 to 0.15 was reached. Cultures were treated with water (Mock) or various concentrations of compounds, as indicated. For panels C and E, the pH of cysteine, thiamine, malic acid, and α-ketoglutarate stocks was adjusted using NaOH to match the pH of the water used for the untreated control. The cells were immediately filmed, and direction changes were counted over a 3-s swimming period in at least 100 cells per treatment from 3 biological replicates. Data are normalized to the values for the untreated control for each strain, as described in Materials and Methods. Error bars represent the standard errors of the means. *, P < 0.05; **, P < 0.01; ***, P < 0.001 (comparisons to the untreated control per strain using two-way ANOVA with Dunnett’s multiple-comparison test).
To determine if chemoattractant responses toward arginine, fumarate, and cysteine were TlpA dependent, the same tracking experiments were repeated with a mutant lacking tlpA (ΔtlpA).
Swimming behavior assays were done with H. pylori PMSS1 strains grown in BB10 as described above. Cultures grown overnight were diluted to an optical density at 600 nm (OD600) of 0.1 in fresh BB10 and then incubated with shaking as described above until an OD600 of 0.12 to 0.15 was reached. […] The number of direction changes in a bacterial swimming trajectory was enumerated over a 3-s interval to determine whether each putative ligand is sensed as an attractant or repellent or elicits no response ([20], [25][–][30]). […] Each control is sensed by chemoreceptors other than TlpA ([24], [25], [29], [31]). The pH of BB10 upon treatment was independently assessed using a Denver Instruments pH meter. Prior to realizing that chemotactic responses may be due to medium acidification, we resuspended all ligands in pure water. Therefore, to be able to compare the results to those of previous experiments, we continued resuspending acidified ligands in pure water and then adjusting the pH of the resuspended ligand using NaOH. Cultures were filmed immediately after ligand addition at a ×400 magnification using a Hamamatsu C4742-95 digital camera with μManager software (version 1.4.22), mounted on a Nikon Eclipse E600 phase-contrast microscope. For the competition chemotaxis assay, cultures of H. pylori and ligands were prepared as described above. However, 1 min after the addition of a nonchemoactive ligand at a final concentration of 10 mM, a chemoactive ligand was added at a final concentration of 10 mM, and the cultures were then filmed as described above. Videos were relabeled to blind the observer to the strain identity. For each sample, >100 3-s-long bacterial tracks from three independent cultures were analyzed manually to identify stops followed by direction changes. Data for all biological replicates under each condition were combined, and the average number of direction changes in 3 s and the standard error of the mean were calculated. For each strain, data were normalized to the values for the untreated control under each experimental condition. Statistical analysis of the data for treated versus untreated samples was performed using two-way analysis of variance (ANOVA) and Dunnett’s multiple-comparison test.

[3] = tested on: TlpALBD; assay: Saturation transfer difference (STD) NMR; type: binding, Helicobacter pylori SS1; conditions: 25 μM TlpALBD, 2.5 mM ligand
Experimental: In the saturation transfer difference (STD) NMR experiment, the entire TlpALBD protein was first saturated at the protein resonances, and excess ligand was then added. As the ligand binds and releases from the receptor, saturation transfers from the protein to the bound ligand. This transfer appeared as an […] in the ligand intensity on epitopes that interacted with the TlpALBD protein. […] All STD NMR spectra were acquired in Shigemi tubes (Shigemi, USA) with a Bruker 600-MHz Advance spectrometer at 283 K using a 1^H-13^C-15^N gradient cryoprobe equipped with z-gradients. Protein resonances were saturated at −1.0 ppm (on-resonance) and 33 ppm (off-resonance), with a total saturation time of 2 s. A total of 512 scans per STD NMR experiment were acquired, and a Watergate sequence was used to suppress the residual HDO signal. A spin-lock filter with a 5-kHz strength and a duration of 10 ms was applied to suppress the protein background. On- and off-resonance spectra were stored and processed separately, and the final STD NMR spectra were obtained by subtracting the on- and off-resonance spectra. Control STD NMR experiments were performed identically in the absence of protein.

Compound	Effect of proximal pocket residue mutations on binding affinity [1]	Chemotactic response of ΔtlpA mutant [2]	STD NMR signal on binding TlpALBD [3]
N[C@H]1C(O)O[C@H](CO)[C@@H](O)[C@@H]1O (stereo partly drawn) [Glucosamine, D(+)-glucosamine hydrochloride]	No proximal pocket residues affected the binding affinity	–	–
N[C@@H](CS)C(=O)O [Cysteine, L-cysteine hydrochloride monohydrate]	–	failed to exhibit a chemotactic response	–
O=C(O)/C=C/C(=O)O [Fumarate, sodium fumarate]	–	failed to exhibit a chemotactic response	significant STD NMR signal was detected
N=C(N)NCCC[C@H](N)C(=O)O [Arginine, L-arginine monohydrochloride]	–	failed to exhibit a chemotactic response	significant STD NMR signals were observed
